In patent EP4775586A1, “DEUTERATED TETRACYCLIC DERIVATIVE AND USE THEREOF” (priority 2023, dated 2025):
Values joined by “and” are separate entries in the source; they are usually repeats but may differ in a detail not shown here. Equal entries are not always repeated.

What was measured:
CYP2C19 = type: in vitro ADME, mouse
Procedure: (§1) This example was to detect the CYP450 metabolic enzyme phenotype of the deuterated compound YF027 and its non-deuterated control compound A (using a CYP450 enzyme metabolic phenotype research kit (recombinant enzymatic method/7 enzymes)-mouse liver microsome test).
(§2) • a. The test compound was prepared into a 40 mM stock solution for later use. 2.5 µL of the stock solution was taken and diluted with DMSO to a test compound concentration of 200 µM, and the compound at this concentration was used in subsequent tests. • b. The working solution concentration of the mixed positive substrates, phenacetin and testosterone, was 200 µM.
(§3) 1) The components of the kit were thawed in an ice bath. The mixture was well mixed by vortexing and then placed on ice for later use. 2) In addition to the microsomes, the other components of the incubation systems were mixed according to the ratios and well mixed by pipetting, and the ratios of the incubation systems are shown below; Table 6. Incubation system of positive control group
(§4) The inhibitors were quinidine, naphthoflavone, pilocarpine, sodium diethyldithiocarbamate, ticlopidine, ketoconazole, and sulfaphenazole, which corresponded to the inhibition of CYP450 enzymes CYP2D6, CYP1A2, CYP2A6, CYP2E1, CYP2C19, CYP3A4, and CYP2C9, respectively. Table 9. Incubation system of negative control group
(§5) 3) Except for the negative control group (Table 9), 3.125 µL of liver microsomes was added to each of the above incubation systems to prepare 125 µL of reaction solution. The reaction solutions were well mixed by vortexing, and then placed in a water bath at 37 °C to initiate the reaction. A timer was set. 4) At time points of 0 min and 90 min, 50 µL of reaction solution was taken, and a pre-cooled acetonitrile solution was added to the reaction solution. The mixture was quickly well mixed by vortexing to stop the reaction. 5) Mass spectrometry detection pretreatment of reaction solution
(§6) The reaction solution was cryopreserved in a refrigerator at -80 °C overnight and then centrifuged for mass spectrometry detection.
(§7) The detection values after 90 min of incubation were processed as ratios relative to the 0-min detection values to determine the metabolic rate of the compounds in different experimental groups after 90 min. The metabolic inhibition rate was then calculated using the formula: Inhibition rate (%) = (1 - metabolic rate of sample with inhibitor/metabolic rate of sample without inhibitor) × 100%, as shown in Table 10 below. […] The metabolic inhibition rate reflects the effect on the metabolic elimination of the drug after adding different selective inhibitors. Therefore, when the metabolic inhibition rate of a specific enzyme is ≥ 25%, the contribution of the specific enzyme to the clearance of the drug under study can be inferred to be ≥ 25% based on the results of the in vitro metabolism study.

CYP2A6 = type: in vitro ADME, mouse
Procedure: as §1, §2, §3, §4, §5, §6, §7

CYP2D6 = type: in vitro ADME, mouse
Procedure: as §1, §2, §3, §4, §5, §6, §7

CYP2C9 = type: in vitro ADME, mouse
Procedure: as §1, §2, §3, §4, §5, §6, §7

CYP3A4 = type: in vitro ADME, mouse
Procedure: as §1, §2, §3, §4, §5, §6, §7

[1] = system: Mycobacterium tuberculosis H37Rv; type: in vivo, BALB/c mice
[2] = 28-day repeat-dose toxicity study in mice; type: in vivo, Balb/c mice; conditions: 100 mg/kg intragastric, once daily, 6 days a week, 4 weeks, Balb/c mice
Procedure: Administration groups of the compound YF027 of the present disclosure and its non-deuterated control compound A were set for a 28-day repeat-dose toxicity study in mice. Each compound was administered to 10 Balb/c mice (5 females and 5 males, purchased from Beijing Vital River Laboratory Animal Technology Co., Ltd.) by intragastric administration. The administration was performed once daily for 6 consecutive days a week for 4 consecutive weeks, and an 8% Tween 80 vehicle control group (10 Balb/c mice, 5 females and 5 males) was set for administration at the same volume using the same method. Table 12. Administration information of repeat-dose toxicity assay
During the administration period, the mice were observed every day. The body weight, appearance signs, behavior and activity, fecal traits, and local reactions at the site of administration were recorded. After the end of the administration, the gross anatomy was performed on the mice in the administration group and the control group. The serum of the mice was collected, and the heart, liver, spleen, kidney, lung, and brain tissues and organs were weighed to calculate organ coefficients. The tissue samples of all groups were subjected to histopathological detection, and the serum samples were analyzed for biochemical parameters of liver and kidney functions. The serum biochemical parameters included: alanine aminotransferase (ALT), aspartate aminotransferase (AST), alkaline phosphatase (ALP), urea (UREA), creatinine (CREA), total protein (TP), and albumin (ALB). Statistical analysis was performed to evaluate potential toxic effects of the compounds.

CYP2E1 = target: T1, CYP2E1 (Mus musculus, UniProt Q05421); type: in vitro ADME
T1 construct: from tissue; host or cells: mouse liver microsomes (component of a kit)
Procedure: as §1, §2, §3, §4, §5, §6
as §7, with “Therefore, when the metabolic inhibition rate of a specific enzyme is ≥ 25%, the contribution of the specific enzyme to the clearance of the drug under study can be inferred to be ≥ 25% based on the results of the in vitro metabolism study.” left out

CYP1A2 = target: T2, CYP1A2 (Mus musculus, UniProt P00186); type: in vitro ADME
T2 construct: from tissue; host or cells: mouse liver microsomes (component of a kit)
T2 sequence (P00186 1-513): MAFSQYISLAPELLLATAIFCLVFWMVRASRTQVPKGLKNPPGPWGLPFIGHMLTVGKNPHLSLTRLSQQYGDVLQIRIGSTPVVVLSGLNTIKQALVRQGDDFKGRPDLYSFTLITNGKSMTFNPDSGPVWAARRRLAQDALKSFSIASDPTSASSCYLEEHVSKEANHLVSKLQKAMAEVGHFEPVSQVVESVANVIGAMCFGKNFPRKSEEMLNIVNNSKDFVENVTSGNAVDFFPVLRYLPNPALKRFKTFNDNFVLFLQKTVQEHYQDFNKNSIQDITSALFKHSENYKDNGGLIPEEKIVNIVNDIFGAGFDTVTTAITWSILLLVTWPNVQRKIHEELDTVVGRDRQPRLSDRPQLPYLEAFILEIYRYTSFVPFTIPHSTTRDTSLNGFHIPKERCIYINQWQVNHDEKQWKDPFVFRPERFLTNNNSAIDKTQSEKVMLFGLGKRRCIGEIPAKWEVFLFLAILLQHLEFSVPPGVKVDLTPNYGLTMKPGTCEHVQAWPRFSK
Procedure: as §1, §2, §3, §4, §5, §6
as §7, with “Therefore, when the metabolic inhibition rate of a specific enzyme is ≥ 25%, the contribution of the specific enzyme to the clearance of the drug under study can be inferred to be ≥ 25% based on the results of the in vitro metabolism study.” left out

[3] = system: Mycobacterium tuberculosis H37Rv; assay: Minimum inhibitory concentration (MIC90) against Mycobacterium tuberculosis H37Rv, Middlebrook 7H9, 96-well plate, 15 days; type: cell-based; conditions: Mycobacterium tuberculosis, H37RV, 360 h
[4] = Pharmacokinetics and lung tissue distribution in mice, LC-MS/MS; type: in vivo, Balb/C mice; conditions: mouse, in vivo, po, 100 mg/kg
Procedure: In this example, the pharmacokinetic parameters and lung tissue distribution of the deuterated compounds YF027, YF032, YF036, and YF044 and their respective non-deuterated control compounds (A, B, C, and D) were determined.
Balb/C mice, male (1 group at each time point, 5 mice per group, 55 mice per compound in total), 7-8 weeks old, weighing about 20 g, animal source: Beijing Vital River Laboratory Animal Technology Co., Ltd.
The test compound was completely dissolved in an 8% Tween-80 aqueous solution. A 10 mg/mL drug liquid was prepared for intraperitoneal injection and intragastric administration.
Single intragastric administration was performed at a dose of 100 mg/kg. The pharmacokinetic differences between the deuterated compounds YF027, YF032, YF036, and YF044 and their respective non-deuterated controls A, B, C, and D were compared.
The mice were fasted overnight before administration. In the experiment, orbital venous blood and lung tissue were collected from the mice at time points of no administration group (0 min) and 10 min, 20 min, 30 min, 1 h, 2 h, 3 h, 4 h, 6 h, 8 h, and 24 h after intragastric administration, and about 300 µL of blood was collected from the eyeballs each time.
The collected blood sample was placed in an anticoagulation tube, and quickly inverted and mixed well. The tube was temporarily placed on ice after being labeled. The blood samples temporarily stored on ice were subjected to low-temperature centrifugation within 1 h at 4 °C at 3000 rpm for 10 min. The supernatant obtained after centrifugation was plasma. The plasma was transferred to a new centrifuge tube and stored in a refrigerator at -80 °C for subsequent detection.
The lung tissues of the mice were collected, washed with pre-cooled normal saline to remove the residual blood and tissue fluid, dried with absorbent paper, weighed with a balance, and placed into a centrifuge tube. The tubes were marked and stored in a refrigerator at -80 °C.
The concentrations of the compounds of the present disclosure and control compounds in plasma and lung tissue were determined using LC-MS/MS. Table 2. Pharmacokinetic parameters of compound YF027 of the present disclosure and control compound A

T1 sequence (Q05421 whole entry): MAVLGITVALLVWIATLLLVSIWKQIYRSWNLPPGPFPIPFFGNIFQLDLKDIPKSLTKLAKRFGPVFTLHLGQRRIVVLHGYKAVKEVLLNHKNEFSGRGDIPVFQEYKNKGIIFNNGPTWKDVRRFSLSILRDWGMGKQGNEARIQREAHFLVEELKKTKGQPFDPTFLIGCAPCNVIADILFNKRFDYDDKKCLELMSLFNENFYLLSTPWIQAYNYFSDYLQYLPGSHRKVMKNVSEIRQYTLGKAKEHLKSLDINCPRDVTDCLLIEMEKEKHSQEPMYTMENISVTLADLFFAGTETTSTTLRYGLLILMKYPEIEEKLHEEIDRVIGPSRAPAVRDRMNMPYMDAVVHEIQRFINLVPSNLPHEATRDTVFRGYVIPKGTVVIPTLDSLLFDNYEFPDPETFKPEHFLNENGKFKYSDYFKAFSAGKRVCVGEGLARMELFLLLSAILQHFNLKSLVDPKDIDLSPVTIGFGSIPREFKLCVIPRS

CC(C)(C)c1cc(O)c(CN2CCCCC2)c2c1oc1c3ccc(O)cc3oc(=O)c12 [Compound A, reference compound]
Inhibition rate (CYP2C19): -19.3%
Inhibition rate (CYP2A6): 4.2%
Inhibition rate (CYP2D6): -8.7%
Inhibition rate (CYP2C9): -2.8%
Inhibition rate (CYP3A4): 76.9%
pulmonary Mycobacterium tuberculosis clearance rate ([1]; 100 mg/kg intragastrically, 4 weeks, mice): 87.7%
reduction of pulmonary bacterial load ([1]; mouse, in vivo): 0.91 log
mortality during the administration period [2]: no mice died
Inhibition rate (CYP2E1): -26.5%
Inhibition rate (CYP1A2): -11.7%
MIC90 [3]: ≤ 3.9 ng/mL
AUC(0-inf) [4]: 121 ng·h/mL
AUC(0-t) at 24 h [4]: 117 ng·h/mL
Cmax [4]: 120 ng/mL and 948 ng/g
Tmax [4]: 0.167 h
half-life [4]: 4.35 h
